Measurements published in patent publication US20220280473A1, “COMPOSITIONS AND METHODS FOR MODULATING EPITHELIAL-MESENCHYMAL TRANSITION” (AUCKLAND UNISERVICES LIMITED, priority 2021, published 2022).
Entries after “also recorded” stand apart in the source; their conditions may differ.

Legend:
Format in all cases: cell-based, Human
ARPE-19 cells [1] = experiment: TGF-β1 and TGF-β2 release after HG+Cyt insult; settings: HG+Cyt insult plus tonabersat
ARPE-19 cells [2] = experiment: RPE65 expression by quantitative immunocytochemistry after HG+Cyt insult
Procedure: (§1) Human adult retinal pigment epithelial cells (ARPE-19; American Type Culture Collection, USA) were cultured in Dulbecco's modified Eagle medium F-12 (DMEM-F12; Thermofisher Scientific Inc., USA) supplemented with 10% foetal bovine serum ([…]: Invitrogen, USA) and a 1× antibiotics and antimycotics mixture (AA, 100× stock) at 37° C. in a humidified 5% CO2 incubator. Cells were grown in T75 flasks, and the medium was changed twice per week until confluent.
(§2) At passages 15-18, cells were plated at 2.5×10^5 cells/mL in 8-well chamber slides for immunohistochemical studies, 6-well plates with inserts for fluorescein isothiocyanate (FITC)-dextran dye leak and transepithelial electrical resistance (TEER) measurements, and 24-well plates for cell migration studies. Once confluent, cells were treated as three separate groups: untreated, insult of HG+Cyt, or HG+Cyt insult plus tonabersat treatment (HG+Cyt+Ton). […]
(§3) Fluorescence images were taken on an Olympus FV1000 confocal laser scanning microscope (Olympus, Japan), and processed using Olympus FV10-ASW viewer and ImageJ software (Version 1.52a, National Institute of Health, USA). […] RPE65 and α-SMA expression was quantified by measuring the mean fluorescence intensity (MFI). […] The ratio of α-SMA to RPE65 expression was additionally calculated by (α-SMA MFI/RPE65 MFI). ZO-1 was qualitatively assessed for changes in localisation.

ARPE-19 cells [3] = experiment: ZO-1 tight junction localisation, immunocytochemistry; settings: ARPE-19, HG+Cyt insult plus tonabersat 100 μM, qualitative
Procedure: as §1, §2, §3

ARPE-19 cells [4] = experiment: Transepithelial electrical resistance (TEER) of cell monolayer; settings: ARPE-19 monolayer, HG+Cyt plus tonabersat 100 μM
Procedure: as §1
(§4) At passages 15-18, cells were plated at 2.5×10^5 cells/mL in 8-well chamber slides for immunohistochemical studies, 6-well plates with inserts for fluorescein isothiocyanate (FITC)-dextran dye leak and transepithelial electrical resistance (TEER) measurements, and 24-well plates for cell migration studies. Once confluent, cells were treated as three separate groups: untreated, insult of HG+Cyt, or HG+Cyt insult plus tonabersat treatment (HG+Cyt+Ton). The insult of HG+Cyt was used to induce DR-like conditions as has been previously described (Kuo et al., 2020; Mugisho et al., 2018a, 2018b), and consisted of a combination of 32.5 mM HG and the pro-inflammatory cytokines; tumour necrosis factor alpha (TNF-α; 10 ng/mL; Peprotech, USA) and interleukin-1 beta (IL-1β; 10 ng/mL; Peprotech, USA).
(§5) Tonabersat (MedChemExpress, NJ, USA) was administered at a concentration of 100 μM to cells at the same time as the HG+Cyt insult (HG+Cyt+Ton). To achieve this tonabersat was dissolved in 100% DMSO at a concentration of 100 mM and then 1 μl of the stock solution was added to 999 μl of culture medium containing HG+Cyt. Cells were incubated under treatment conditions for 72 h unless otherwise stated. Brightfield images were taken using a light microscope at 24, 48, and 72 h post-treatment. All experiments were repeated thrice.
To determine the effect of conditions on the TEER of the cell monolayer, cells were again seeded into the inserts of 6-well Transwell® plates (Corning Incorporated, USA), with additional medium in the base. […] TEER values were quantified relative to the 0 h values for each respective group. […]

ARPE-19 cells [5] = experiment: α-SMA expression by quantitative immunocytochemistry after HG+Cyt insult; settings: for α-SMA to RPE65 expression ratio / α-SMA expression (mean fluorescence intensity, compared to untreated levels): ARPE-19, HG+Cyt insult plus tonabersat 100 μM; for α-SMA to RPE65 expression ratio: α-SMA MFI/RPE65 MFI
Procedure: as §1, §4, §5
Cells were fixed with 4% paraformaldehyde for 10 min and permeabilized with 0.1% Triton X-100 in phosphate-buffered saline (PBS) for 10 min. Cells were blocked in normal goat or horse serum for 1 h, and then incubated overnight at 4° C. with either mouse anti-RPE65 (1:1000; Abcam, UK) and goat anti-α-SMA (1:200; Abcam, UK), or rabbit anti-ZO-1 (1:1000; Invitrogen, USA). Two 10 min washes followed in PBS, after which cells were incubated at room temperature for 2 h with their respective secondary antibodies; donkey anti-rabbit Alexa-488 (1:500; Abcam, UK), donkey anti-mouse Alexa-488 (1:500; Abcam, UK) or donkey anti-goat Cy3 (1:500; Invitrogen, USA). Cells were washed in PBS twice for 10 min. Cell nuclei were stained with DAPI (1:1000; Sigma-Aldrich, USA), and slides were mounted using Citifluor™ anti-fade reagent and sealed with nail varnish.
Fluorescence images were taken on an Olympus FV1000 confocal laser scanning microscope (Olympus, Japan), and processed using Olympus FV10-ASW viewer and ImageJ software (Version 1.52a, National Institute of Health, USA). Five images were taken from a single chamber per condition and repeated in three separate experiments. RPE65 and α-SMA expression was quantified by measuring the mean fluorescence intensity (MFI). Data is presented relative to the respective untreated group. The ratio of α-SMA to RPE65 expression was additionally calculated by (α-SMA MFI/RPE65 MFI). ZO-1 was qualitatively assessed for changes in localisation.

ARPE-19 cells [6] = experiment: Cell migration (scrape wound) assay after HG+Cyt insult; settings: ARPE-19, HG+Cyt plus tonabersat 100 μM
Procedure: as §1, §4
Tonabersat (MedChemExpress, NJ, USA) was administered at a concentration of 100 μM to cells at the same time as the HG+Cyt insult (HG+Cyt+Ton). […]
To determine cell migration rates following 72 h treatment, a scrape wound was created in the cell monolayer by drawing a 1000 μL pipette tip vertically over the cells by hand, and the width of the wound measured over time. […] The width of the scrape was measured with the line tool and “measure” feature in ImageJ at eight regular intervals (guided using a grid overlay) within each image. […] The scrape wound width was quantified relative to the post-scrape width at time 0 h and converted to a percentage scrape closure for each condition. […]

ARPE-19 cells [7] = experiment: Cx43 cell membrane localization, immunolabelling; settings: ARPE-19, HG+Cyt insult plus tonabersat, qualitative

CC(=O)c1ccc2c(c1)[C@H](NC(=O)c1ccc(F)c(Cl)c1)[C@H](O)C(C)(C)O2 [tonabersat, N-[(3S,4S)-6-acetyl-3-hydroxy-2,2-dimethyl-3,4-dihydrochromen-4-yl]-3-chloro-4-fluorobenzamide]
HG+Cyt induced TGF-β2 release (ARPE-19 cells [1]; 24 h): prevented HG+Cyt induced TGF-β2 release back to untreated levels | TGF-β1 and 2 levels (ARPE-19 cells [1]; 72 h): no significant differences between all groups | RPE65 expression (mean fluorescence intensity relative to untreated group) (ARPE-19 cells [2]; ARPE-19, HG+Cyt insult plus tonabersat 100 μM, 72 h, comparison with HG+Cyt and untreated groups, listed as HG+Cyt+Ton): not being significantly different to either group; also recorded: no statistically significant difference | RPE65 expression decrease following HG+Cyt insult (immunolabelling images) (ARPE-19 cells [2]; ARPE-19, co-application of tonabersat, FIG. 2 qualitative): prevented | ZO-1 cell membrane localization (ARPE-19 cells [3]): maintained ZO-1 localization at the cell membrane; also recorded: prevented loss of ZO-1 cell membrane localization | TEER relative to 0 h value (ARPE-19 cells [4]; 24 h): 99.5±1.2% | TEER relative to 0 h value (ARPE-19 cells [4]; 48 h): 114.9±3.2% | TEER relative to 0 h value (ARPE-19 cells [4]; 72 h): 97.7±1.1% | α-SMA to RPE65 expression ratio (ARPE-19 cells [5]; 24 h): 1.1 | α-SMA expression (mean fluorescence intensity, compared to untreated levels) (ARPE-19 cells [5]; 72 h): 75.5±8.4% | α-SMA expression (mean fluorescence intensity, compared to untreated levels) (ARPE-19 cells [5]; 72 h, listed as HG+Cyt+Ton): significantly reduced | α-SMA to RPE65 expression ratio (ARPE-19 cells [5]; 72 h): 0.8 | α-SMA expression increase and striation following HG+Cyt insult (immunolabelling images) (ARPE-19 cells [5]; ARPE-19, addition of tonabersat, FIG. 2 qualitative): changes were prevented | scrape wound percentage closure (ARPE-19 cells [6]; 4 h post-scrape vs 0 h scrape width): no significant difference in percentage closure | scrape wound percentage closure (ARPE-19 cells [6]; 24 h post-scrape relative to 0 h width): 33.8±9.6% | scrape wound percentage closure (ARPE-19 cells [6]; 24 h post-scrape relative to 0 h width, listed as HG+Cyt+Ton): reduction in scrape wound closure | Cx43 cell membrane localization (ARPE-19 cells [7]): maintained Cx43 localization
